Results on 1 compound are retold here after PMC2839369 (Chimia, 2009).

The assay concerns the target thymidine kinase from Thermotoga maritima (TmTK) (Thermotoga maritima, UniProt Q9WYN2). As to the kind of experiment: crystal structures and activity. The format is binding. The settings on record: phosphoryl donor site.

Sequence of thymidine kinase from Thermotoga maritima (TmTK) (Q9WYN2 whole entry): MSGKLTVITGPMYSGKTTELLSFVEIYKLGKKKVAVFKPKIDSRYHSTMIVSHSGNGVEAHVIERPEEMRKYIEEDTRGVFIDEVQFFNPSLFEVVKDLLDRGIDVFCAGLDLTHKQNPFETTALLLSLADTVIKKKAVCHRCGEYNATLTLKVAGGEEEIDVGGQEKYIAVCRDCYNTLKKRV

For the compound `Nc1ncnc2c1ncn2[C@@H]1O[C@H](COP(=O)(O)OP(=O)(O)OP(=O)(O)O)[C@@H](O)[C@H]1O` [ATP], the “crystal structures and activity (summary of authors' earlier work)” value is given as “large conformational change in the native homotetramer associated with ATP binding”.
